Source: patent US6291677A, “Compounds having activity as inhibitors of cytochrome P450RAI” (Allergan Sales, Inc., priority 2000, dated 2001)

Assays:
RARα = test: chimeric receptor transactivation assay, RARα; type: cell-based; settings: unit assumed
Source text: (§1) Assays described below measure the ability of a compound to bind to, and/or activate various retinoid receptor subtypes. When in these assays a compound binds to a given receptor subtype and activates the transcription of a reporter gene through that subtype, then the compound is considered an agonist of that receptor subtype. […] In the below described assays the ability of the compounds to bind to RARα, RARβ, RARγ,RXRα, RXRβ and RXRγ receptors, and the ability or inability of the compounds to activate transcription of a reporter gene through these receptor subtypes can be tested.
(§2) The results obtained in this assay are expressed in EC50 numbers, as they are also in the chimeric receptor transactivation assay. The results of ligand binding assay are expressed in Kd numbers.

RARβ = test: chimeric receptor transactivation assay, RARβ; type: cell-based; settings: unit assumed
Source text: as §1, §2

RARγ = test: chimeric receptor transactivation assay, RARγ; type: cell-based; settings: unit assumed
Source text: as §1, §2

skin of hairless mice = test: topical skin irritation test in hairless mice; type: in vivo, female hairless mice (Crl:SKH1-hrBR); settings: once daily days 1 through 5, mean±SD
Source text: Mice were housed individually throughout the dosing period.
Doses are disclosed as nmol/25 g.
The grading scale used is as follows:
Values can range from 0-9.
Values can range from 0-8.

P450RAI-1 = target: T1, P450RAI-1 (Homo sapiens, UniProt O43174); test: cell-based; settings: intact HeLa, P450RAI-1 stably transfected, [3H]-RA, 3 hours at 37° C; read-out: P450RAI INHIBITION DATA INTACT HELA IC50
T1 sequence (O43174 1-497): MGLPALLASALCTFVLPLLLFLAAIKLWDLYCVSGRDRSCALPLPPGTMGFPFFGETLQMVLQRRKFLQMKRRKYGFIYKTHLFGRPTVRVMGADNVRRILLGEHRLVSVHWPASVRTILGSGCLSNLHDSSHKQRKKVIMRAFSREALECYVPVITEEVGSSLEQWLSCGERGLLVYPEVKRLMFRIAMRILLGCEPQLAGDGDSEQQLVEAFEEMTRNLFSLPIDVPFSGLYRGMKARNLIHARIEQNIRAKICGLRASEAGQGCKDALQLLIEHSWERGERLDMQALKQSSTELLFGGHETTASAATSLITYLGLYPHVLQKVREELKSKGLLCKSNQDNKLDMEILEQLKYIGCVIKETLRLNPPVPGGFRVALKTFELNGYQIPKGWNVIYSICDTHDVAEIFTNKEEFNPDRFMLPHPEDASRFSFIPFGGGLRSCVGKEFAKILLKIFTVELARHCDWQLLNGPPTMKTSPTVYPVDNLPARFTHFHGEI
Experimental: FIG. 1 is a schematic representation of the P450RAI cell based assay utilized to evaluate the ability of the compounds of the invention to inhibit the Cytochrome P450RAI enzyme.
P450RAI-1 Cell-Based Inhibitor Assay:
P450RAI-1 stably transfected HeLa cells are maintained in […] tissue culture dishes in Modified Eagle's Medium (MEM) containing 10% Fetal Bovine Serum (FBS) and 100 μg/ml hygromycin. Exponentially growing cells are harvested by incubating in trypsin. Cells are then washed with 1× Phosphate Buffered Saline (PBS) and plated in a 48-well plate at 5×10^5 cells in 0.2 ml MEM medium containing 10% FBS and 0.05 μCi [^3 H]-RA in the presence or absence of increasing concentrations of the test compounds. The compounds are diluted in 100% DMSO and then added in triplicate wells at either 10, 1 or 0.1 μM final concentration. As a positive control for RA metabolism inhibition, cells are also incubated with ketoconazole at 100, 10 and 1 μM. Cell are incubated for 3 hours at 37° C. […] The water soluble radioactivity is quantified using a β-scintillationcounter. IC50 values represent the concentration of inhibitor required to inhibit all-trans-RA metabolism by 50 percent and are derived manually from log-transformed data.

IC50 (P450RAI-1)	SMILES	(EFFICACY) RAR α (RARα)	(EFFICACY) RAR β (RARβ)	(EFFICACY) RAR γ (RARγ)	Cutaneous Toxicity Score (Blackjack Score) (skin of hairless mice; 100 nmole)	Cutaneous Toxicity Score (Blackjack Score) (skin of hairless mice; 300 nmole)	Cutaneous Toxicity Score (Blackjack Score) (skin of hairless mice; 1000 nmole)
	CCCNC1(c2ccc(C#Cc3ccc(C(=O)O)cc3)cc2)CC1 [Compound 108, 4-[4-(1-Propylamino-cyclopropyl)-phenylethynyl]-benzoic acid]	15%	36%	10%			
	Cc1cc(C#Cc2ccc(C(=O)O)cc2)ccc1C1(OCC(C)(C)C)CC1 [Compound 89, 4-[4-[1-(2,2-Dimethylpropyloxy)-cyclopropyl]-3-methyl-phenylethynyl]-benzoic acid]	20%	50%	46%			
	CC1(C)CC2(CC2)Oc2c(C3CC3)cc(C(=O)Oc3ccc(CC(=O)O)cc3)cc21 [Compound 58]				0 ± 0	0 ± 0	0 ± 0
	CN(C1CC1)C1CCC(C)(C)c2cc(C#Cc3ccc(C(=O)O)c(F)c3)ccc21 (stereo not drawn) [Compound 13, 4-[5-(Cyclopropyl-methyl-amino)-8,8-dimethyl-5,6,7,8-tetrahydro-naphthalene-2-yl-ethynyl]-2-fluoro benzoic acid]		6.6%	9%			
	Cc1cc(C#Cc2ccc(C(=O)O)cc2)ccc1C1(OC(C)C)CC1 [Compound 85, 4-[4-(1-Isopropoxycyclopropyl)-3-methyl-phenylethynyl]-benzoic acid]	60%	77%	65%			
	CC1(C)CN(C2CC2)Cc2ccc(C#Cc3ccc(CC(=O)O)c(F)c3)cc21 [Compound 22, [4-(2-Cyclopropyl-4,4-dimethyl-1,2,34-tetrahydro-isoquinolin-6-yl-ethynyl)-2-fluoro-phenyl]-acetic acid]				0 ± 0	0 ± 0	1 ± 1
	Cc1cc(C#Cc2ccc(C(=O)O)cc2)ccc1C1(OCc2ccccc2)CC1 [Compound 81, 4-[4-(1-Benzyloxycyclopropyl)-3-methyl-phenylethynyl]-benzoic acid]		80%	67%			
0.18 µM	Cc1cc(C#Cc2ccc(CC(=O)O)cc2)ccc1Cn1ccnc1 [Compound 121, [4-(4-Imidazol-1-yl-methyl-3-methyl-phenylethynyl)-phenyl]-acetic acid]						
	CN(C1CC1)C1CCC(C)(C)c2cc(C#Cc3ccc(C(=O)O)cc3)ccc21 (stereo not drawn) [Compound 3, 4-[(5-Cyclopropyl-methyl-amino)-8,8-dimethyl-5,6,7,8-tetrahydro-naphthalene-2yl-ethynyl]-benzoic acid]	28%	54%	52%			
	CC1(C)CC2(CC2)Oc2c(C3CC3)cc(C#Cc3ccc(CC(=O)O)cc3)cc21 [Compound 48, Benzeneacetic acid, 4-[(8-cyclopropyl-3,4-dihydro-4,4-dimethylspiro[2H-1-benzopyran-2,1'-cyclopropane]-6-yl)ethynyl]-]				1 ± 1	3 ± 1	7 ± 2
	CC1(C)CCC(=O)c2ccc(C#Cc3ccc(C(=O)O)c(F)c3)cc21 [Compound 10, 2-Fluoro-4-(8,8-dimethyl-5-oxo-5,6,7,8-tetrahydro-naphthalen-2yl-ethynyl)-benzoic acid]	146%	86%	94%			
10 µM	CC(C)N(C)C1CCC(C)(C)c2cc(C#Cc3ccc(C(=O)O)cc3)ccc21 (stereo not drawn) [Compound 26]						
	CN(C1CC1)C1CCC(C)(C)c2cc(C#Cc3ccc(CC(=O)O)c(F)c3)ccc21 (stereo not drawn) [Compound 18, [4-(5-(Cyclopropyl-methyl-amino)-8,8-dimethyl-5,6,7,8-tetrahydro-naphthalene-2-yl-ethynyl)-2-fluoro-phenyl]-acetic acid]				0 ± 0	1 ± 1	10 ± 2
	CCCN(CCC)C1(c2ccc(C#Cc3ccc(C(=O)O)cc3)cc2)CC1 [Compound 110, 4-[4-(1-Dipropylamino-cyclopropyl)-phenylethynyl]-benzoic acid]		44%	42%			
	O=C(O)c1ccc(C#Cc2ccc(C3(NCc4ccccc4)CC3)cc2)cc1 [Compound 112]		37%				
	CC1(C)CC2(CC2)Oc2ccc(C#Cc3ccc(C(=O)O)c(F)c3)cc21 [Compound 44, 2-Fluoro-benzoic acid 4-[(3,4-dihydro-4,4-dimethylspiro[2H-1-benzopyran-2,1'-cyclopropane]-6-yl)ethynyl]-]	138%	100%	116%			
	CC1(C)CC2(CC2)Oc2c(C3CC3)cc(C#Cc3ccc(CC(=O)O)c(F)c3)cc21 [Compound 50, 4-[(8-Cyclopropyl-3,4-dihydro-4,4-dimethylspiro[2H-1-benzopyran-2,1'-cyclopropane]-6-yl)ethynyl]-2-fluoro-benzeneacetic acid]				1 ± 0	3 ± 2	8 ± 2
	CC1(C)CC(C)(C)c2cc(C#Cc3ccc(CC(=O)O)cc3)cc(C3CC3)c2O1 [Compound 36, [4-(8-Cyclopropyl-2,2,4,4-tetramethyl-chroman-6-yl-ethynyl)phenyl]acetic acid]				1 ± 1		11 ± 0
	COC1(c2ccc(C#Cc3ccc(C(=O)O)cc3)cc2)CC1 [Compound 69, 4-[4-(1-Methoxycyclopropyl)-phenylethynyl]-benzoic acid]	10%	50%	31%			
	CC1(C)CCC(=O)c2ccc(C#Cc3ccc(CC(=O)O)cc3)cc21 [Compound 5, 4-[(8,8-Dimethyl-5-oxo-5,6,7,8-tetrahydro-naphthalene-2-yl-ethynyl)-phenyl]-acetic acid]		36%		0		6 ± 3
	CC1(C)CCC(=O)c2ccc(C#Cc3ccc(CC(=O)O)c(F)c3)cc21 [Compound 15, [2-Fluoro-4-(8,8-dimethyl-5-oxo-5,6,7,8-tetrahydro-naphthalene-2-yl-ethynyl)phenyl]-acetic acid]				1 ± 1		5 ± 2
	CC(C)OC1(c2ccc(C#Cc3ccc(C(=O)O)cc3)cc2)CC1 [Compound 73, 4-[4-(1-Isopropoxycyclopropyl)-phenylethynyl]-benzoic acid]		39%	24%			
	CC1(C)CC2(CC2)Oc2ccc(C#Cc3ccc(C(=O)O)cc3)cc21 [Compound 40, Benzoic acid, 4-[(3,4-dihydro-4,4-dimethylspiro[2H-1-benzopyran-2,1'-cyclopropane]-6-yl)ethynyl]-]	207%	126%	140%			
	CC1(C)CCC(n2ccnc2)c2ccc(C#Cc3ccc(CC(=O)O)cc3)cc21 (stereo not drawn) [Compound 137, [4-(5-Imidazol-1-yl-8,8-dimethyl-5,6,7,8-tetrahydro-naphthalen-2-yl-ethynyl)-phenyl]-acetic acid]				1 ± 1	1 ± 1	5 ± 2
	CCc1cc(C#Cc2ccc(C(=O)O)cc2)ccc1C1(OCc2ccccc2)CC1 [Compound 93, 4-[4-(1-Benzyloxycyclopropy)-3-ethyl-phenylethynyl]-benzoic acid]	114%	39%	55%			
